These results are taken from patent US12129237B2, “Substituted diaminocarboxamide and diaminocarbonitrile pyrimidines, compositions thereof, and methods of treatment therewith” (SIGNAL PHARMACEUTICALS, LLC, priority 2011, dated 2024).

pIC50: −log10 of the molar value.

T1 sequence (P45983 whole entry): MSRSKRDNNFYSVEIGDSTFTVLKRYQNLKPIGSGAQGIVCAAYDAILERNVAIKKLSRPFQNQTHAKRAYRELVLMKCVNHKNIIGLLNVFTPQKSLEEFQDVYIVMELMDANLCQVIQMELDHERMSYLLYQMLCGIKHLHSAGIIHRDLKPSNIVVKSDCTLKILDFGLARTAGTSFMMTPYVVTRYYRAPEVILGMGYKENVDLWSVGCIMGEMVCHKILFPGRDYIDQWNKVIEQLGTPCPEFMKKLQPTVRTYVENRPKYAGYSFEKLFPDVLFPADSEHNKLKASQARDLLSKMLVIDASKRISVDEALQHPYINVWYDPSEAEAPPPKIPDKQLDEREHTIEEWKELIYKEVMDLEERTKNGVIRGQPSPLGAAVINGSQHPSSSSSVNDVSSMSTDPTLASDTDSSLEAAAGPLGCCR

This assay has as its target T1, JNK1 (Homo sapiens, UniProt P45983).
T1 construct: purchased Carna Biosciences
Nature of the assay: JNK1 biochemical assays (one or more of: time resolved fluorescence, Z'-LYTE Cascade, radioactive). To be noted: one or more of the JNK1 biochemical assays; read-out: Act. Level (JNK1 IC50 activity level).
By pIC50 is commonly meant −log10 of the IC50, conventionally taken in molar units. With `C[C@@H](Nc1nc(N[C@H]2CC[C@H](O)CC2)ncc1C(N)=O)C(C)(C)C` [Example 281, 4-((R)-3,3-dimethylbutan-2-ylamino)-2-((1r,4R)-4-hydroxycyclohexylamino)pyrimidine-5-carboxamide], the pIC50 was over 6.70.

As for `CCO[C@H]1CC[C@H](Nc2ncc(C(N)=O)c(N[C@@H](C)C(C)C)n2)CC1` [Example 282, 2-((1r,4S)-4-ethoxycyclohexylamino)-4-((S)-3-methylbutan-2-ylamino)pyrimidine-5-carboxamide], the negative-log IC50 (pIC50) is over 6.70.

On to `CO[C@H]1CC[C@H](Nc2ncc(C(N)=O)c(N[C@@H](C)C(C)C)n2)CC1` [Example 283, 2-((1r,4S)-4-methoxycyclohexylamino)-4-((S)-3-methylbutan-2-ylamino)pyrimidine-5-carboxamide], for which the negative-log IC50 (pIC50) was over 6.70.

Turning to `CC(C)[C@H](C)Nc1nc(N[C@H]2CC[C@H](O)CC2)ncc1C(N)=O` [Example 284, 2-((1r,4S)-4-hydroxycyclohexylamino)-4-((S)-3-methylbutan-2-ylamino)pyrimidine-5-carboxamide], the pIC50 is over 6.70.

Turning to `C[C@@H]1CC[C@@H](Nc2nc(NC3CCC3)ncc2C(N)=O)C[C@H]1O` [Example 285, 2-(cyclobutylamino)-4-((1R,3R,4R)-3-hydroxy-4-methylcyclohexylamino)pyrimidine-5-carboxamide], the pIC50 was over 6.70.

Consider `CCC(C)(C)Nc1ncc(C(N)=O)c(N[C@@H]2CC[C@@H](C)[C@H](O)C2)n1` [Example 286, 4-((1R,3R,4R)-3-hydroxy-4-methylcyclohexylamino)-2-(tert-pentylamino)pyrimidine-5-carboxamide], for which the pIC50 was over 6.70.

Regarding `C[C@@H]1CC[C@@H](Nc2nc(NC3(C)CCC3)ncc2C(N)=O)C[C@H]1O` [Example 287, 4-((1R,3R,4R)-3-hydroxy-4-methylcyclohexylamino)-2-(1-methylcyclobutylamino)pyrimidine-5-carboxamide], the pIC50 was over 6.70.

`CC(C)(C)Nc1nc(NC23CCC(F)(CC2)CC3)ncc1C(N)=O` [Example 289, 4-(tert-butylamino)-2-(4-fluorobicyclo[2.2.2]octan-1-ylamino)pyrimidine-5-carboxamide]: the pIC50 was over 6.70.

Take `CCO[C@H]1CC[C@H](Nc2ncc(C(N)=O)c(N[C@H](C)C(C)C)n2)CC1` [Example 290, 2-((1r,4R)-4-ethoxycyclohexylamino)-4-((R)-3-methylbutan-2-ylamino)pyrimidine-5-carboxamide]: the pIC50 is over 6.70.

Turning to `CO[C@H]1CC[C@H](Nc2ncc(C(N)=O)c(N[C@H](C)C(C)C)n2)CC1` [Example 291, 2-((1r,4R)-4-methoxycyclohexylamino)-4-((R)-3-methylbutan-2-ylamino)pyrimidine-5-carboxamide], the pIC50 was over 6.70.

In the case of `CC(C)[C@@H](C)Nc1nc(N[C@H]2CC[C@H](O)CC2)ncc1C(N)=O` [Example 292, 2-((1r,4R)-4-hydroxycyclohexylamino)-4-((R)-3-methylbutan-2-ylamino)pyrimidine-5-carboxamide], the pIC50 was over 6.70.

Consider `CCO[C@H]1CC[C@H](Nc2ncc(C(N)=O)c(N[C@@H](C)C3CCC3)n2)CC1` [Example 293, 4-((S)-1-cyclobutylethylamino)-2-((1r,4S)-4-ethoxycyclohexylamino)pyrimidine-5-carboxamide], for which the pIC50 is over 6.70.

As to `CCO[C@H]1CC[C@H](Nc2ncc(C(N)=O)c(N[C@H](C)C3CCC3)n2)CC1` [Example 294, 4-((R)-1-cyclobutylethylamino)-2-((1r,4R)-4-ethoxycyclohexylamino)pyrimidine-5-carboxamide], the pIC50 was 5.00 to 6.00.

Consider `CO[C@H]1CC[C@H](Nc2ncc(C(N)=O)c(N[C@@H](C)C3CCC3)n2)CC1` [Example 295, 4-((S)-1-cyclobutylethylamino)-2-((1r,4S)-4-methoxycyclohexylamino)pyrimidine-5-carboxamide], for which the negative logarithm of the IC50 (pIC50) was over 6.70.

As for `CO[C@H]1CC[C@H](Nc2ncc(C(N)=O)c(N[C@H](C)C3CCC3)n2)CC1` [Example 296, 4-((R)-1-cyclobutylethylamino)-2-((1r,4R)-4-methoxycyclohexylamino)pyrimidine-5-carboxamide], the pIC50 was 5.00 to 6.00.

As to `C[C@H](Nc1nc(N[C@H]2CC[C@H](O)CC2)ncc1C(N)=O)C1CCC1` [Example 297, 4-((S)-1-cyclobutylethylamino)-2-((1r,4S)-4-hydroxycyclohexylamino)pyrimidine-5-carboxamide], the pIC50 was over 6.70.

On to `C[C@@H](Nc1nc(N[C@H]2CC[C@H](O)CC2)ncc1C(N)=O)C1CCC1` [Example 298, 4-((R)-1-cyclobutylethylamino)-2-((1r,4R)-4-hydroxycyclohexylamino)pyrimidine-5-carboxamide], for which the pIC50 is over 6.70.

`CC(C)(C)Nc1nc(N[C@@H]2CCC[C@@H](O)C2)ncc1C(N)=O` [Example 299, 4-(tert-butylamino)-2-((1R,3R)-3-hydroxycyclohexylamino)pyrimidine-5-carboxamide]: the negative logarithm of the IC50 (pIC50) is over 6.70.

In the case of `CC(C)(C)Nc1nc(N[C@H]2CCCOC2)ncc1C(N)=O` [Example 300, (S)-4-(tert-butylamino)-2-(tetrahydro-2H-pyran-3-ylamino)pyrimidine-5-carboxamide], the pIC50 is over 6.70.

Regarding `CC(C)(C)Nc1nc(N[C@@H]2CCCOC2)ncc1C(N)=O` [Example 301, (R)-4-(tert-butylamino)-2-(tetrahydro-2H-pyran-3-ylamino)pyrimidine-5-carboxamide], the pIC50 is over 6.70.

For the molecule `CC(C)(C)Nc1nc(N[C@H]2CC[C@](C)(O)CC2)ncc1C(N)=O` [Example 302, 4-(tert-butylamino)-2-((1r,4r)-4-hydroxy-4-methylcyclohexylamino)pyrimidine-5-carboxamide], the pIC50 was over 6.70.

In the case of `CC(C)(C)Nc1nc(NC2COC2)ncc1C(N)=O` [Example 303, 4-(tert-butylamino)-2-(oxetan-3-ylamino)pyrimidine-5-carboxamide], the pIC50 is 6.10 to 6.70.

Consider `CC(C)(C)Nc1nc(N[C@H]2CC[C@H](OC3CC3)CC2)ncc1C(N)=O` [Example 304, 4-(tert-butylamino)-2-((1r,4r)-4-cyclopropoxycyclohexylamino)pyrimidine-5-carboxamide], for which the pIC50 was over 6.70.

For the molecule `CC(C)(C)Nc1nc(N[C@H]2CCC[C@H](O)C2)ncc1C(N)=O` [Example 305, 4-(tert-butylamino)-2-((1S,3S)-3-hydroxycyclohexylamino)pyrimidine-5-carboxamide], the pIC50 is over 6.70.

As to `CC(C)(C)Nc1nc(N[C@H]2CCC[C@@H](O)C2)ncc1C(N)=O` [Example 306, 4-(tert-butylamino)-2-((1S,3R)-3-hydroxycyclohexylamino)pyrimidine-5-carboxamide], the pIC50 was over 6.70.

Regarding `CC(C)(C)Nc1nc(N[C@@H]2CCC[C@H](O)C2)ncc1C(N)=O` [Example 307, 4-(tert-butylamino)-2-((1R,3S)-3-hydroxycyclohexylamino)pyrimidine-5-carboxamide], the pIC50 was over 6.70.

`CN(C)C(=O)[C@H]1CC[C@H](Nc2ncc(C(N)=O)c(NC(C)(C)C)n2)CC1` [Example 308, 4-(tert-butylamino)-2-((1r,4r)-4-(dimethylcarbamoyl)cyclohexylamino)pyrimidine-5-carboxamide]: the pIC50 was over 6.70.

In the case of `CCO[C@H]1CC[C@H](Nc2ncc(C(N)=O)c(NC(C)(C)CO)n2)CC1` [Example 309, 2-((1r,4r)-4-ethoxycyclohexylamino)-4-(1-hydroxy-2-methylpropan-2-ylamino)pyrimidine-5-carboxamide], the pIC50 is over 6.70.

With `CO[C@H]1CC[C@H](Nc2ncc(C(N)=O)c(NC(C)(C)CO)n2)CC1` [Example 310, 4-(1-hydroxy-2-methylpropan-2-ylamino)-2-((1r,4r)-4-methoxycyclohexylamino)pyrimidine-5-carboxamide], the pIC50 was over 6.70.

On to `CC(C)(CO)Nc1nc(N[C@H]2CC[C@H](O)CC2)ncc1C(N)=O` [Example 311, 4-(1-hydroxy-2-methylpropan-2-ylamino)-2-((1r,4r)-4-hydroxycyclohexylamino)pyrimidine-5-carboxamide], for which the pIC50 is over 6.70.

As to `C[C@@H]1CC[C@@H](Nc2nc(NC3COC3)ncc2C(N)=O)C[C@H]1O` [Example 312, 4-((1R,3R,4R)-3-hydroxy-4-methylcyclohexylamino)-2-(oxetan-3-ylamino)pyrimidine-5-carboxamide], the pIC50 is over 6.70.

In the case of `CCO[C@H]1CC[C@H](Nc2ncc(C(N)=O)c(N[C@H]3C[C@H](C)C3)n2)CC1` [Example 313, 2-((1r,4r)-4-ethoxycyclohexylamino)-4-((1r,3r)-3-methylcyclobutylamino)pyrimidine-5-carboxamide], the pIC50 was over 6.70.

Regarding `CCO[C@H]1CC[C@H](Nc2ncc(C(N)=O)c(NC(C)(C)C3CC3)n2)CC1` [Example 314, 4-(2-cyclopropylpropan-2-ylamino)-2-((1r,4r)-4-ethoxycyclohexylamino)pyrimidine-5-carboxamide], the negative logarithm of the IC50 (pIC50) is over 6.70.

For the molecule `CO[C@H]1CC[C@H](Nc2ncc(C(N)=O)c(NC(C)(C)C3CC3)n2)CC1` [Example 315, 4-(2-cyclopropylpropan-2-ylamino)-2-((1r,4r)-4-methoxycyclohexylamino)pyrimidine-5-carboxamide], the pIC50 is over 6.70.

For `CC(C)(Nc1nc(N[C@H]2CC[C@H](O)CC2)ncc1C(N)=O)C1CC1` [Example 316, 4-(2-cyclopropylpropan-2-ylamino)-2-((1r,4r)-4-hydroxycyclohexylamino)pyrimidine-5-carboxamide], the pIC50 was over 6.70.

For `CC(C)(C)Nc1nc(NC2CCOCC2)ncc1C(N)=O` [Example 317, 4-(tert-butylamino)-2-(tetrahydro-2H-pyran-4-ylamino)pyrimidine-5-carboxamide], the negative-log IC50 (pIC50) was over 6.70.

In the case of `CC(C)(C)Nc1nc(NC2CCC(F)(F)CC2)ncc1C(N)=O` [Example 318, 4-(tert-butylamino)-2-(4,4-difluorocyclohexylamino)pyrimidine-5-carboxamide], the pIC50 is over 6.70.
